Earlier results on one compound are cited in patent US10238615B2 (Bracco S.P.A., priority 2011, dated 2019).

As for `N[C@@H](Cc1cc(I)c(Oc2ccc(O)c(I)c2)c(I)c1)C(=O)O` [Example T3, 3,5,3′-triiodothyronine], for the setting “20 μg T3”, the “Plasma level of total T3 obtained by standard therapy” value is 196.6 ng/dL. Further, for the setting “synthetic T3 once administered”, the “Time of peak level in serum” value was 2 to 3 h and the “Time to complete clearance from blood” value is 12 to 24 h. The “Serum levels of thyreotropic hormone (TSH)” value with euthyroid rats is reported as “significant reduction”.
